From article PMC7761830, “Structure-Based Virtual Screening of Ultra-Large Library Yields Potent Antagonists for a Lipid GPCR” (Biomolecules, 2020) come the findings set out here.

Molecules are shown by their SMILES. A value given as a limit tells only on which side of the number the result lay.

Experiment [1] concerns the target T1, wild-type CysLT1R (Homo sapiens, UniProt Q9Y271).
T1 construct: expressed in transfected cells; host or cells: HEK293 (ATCC CRL-1573), transient transfection with Lipofectamine 3000
T1 sequence (Q9Y271 1-337): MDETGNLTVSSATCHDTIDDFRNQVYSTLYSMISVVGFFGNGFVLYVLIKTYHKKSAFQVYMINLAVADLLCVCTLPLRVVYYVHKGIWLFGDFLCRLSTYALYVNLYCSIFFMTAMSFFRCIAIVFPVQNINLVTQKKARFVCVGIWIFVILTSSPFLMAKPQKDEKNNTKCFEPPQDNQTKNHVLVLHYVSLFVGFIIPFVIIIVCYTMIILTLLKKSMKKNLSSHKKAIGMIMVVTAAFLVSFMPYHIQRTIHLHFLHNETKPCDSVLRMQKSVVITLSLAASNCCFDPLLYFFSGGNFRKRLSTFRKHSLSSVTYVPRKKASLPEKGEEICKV
Description: IP1 production assay, antagonist mode, co-stimulation with EC80 LTD4. Type of experiment: cell-based. Conditions: for inhibition at 30 µM: HEK293, compound 30 µM, LTD4 at EC80, HEK293, wild-type CysLT1R, read-out: inhibition of LTD4-induced IP1 production, single-concentration screen; for Emax: HEK293, read-out: CysLT1R (LTD4) % Max Inhibition ± SEM. Here is the method: (§1) For this assay, we used the Cisbio IP-One kit as previously described. […] At 48 h post-transfection, the media was removed and the cells were washed with fresh Hank’s Balanced Salt Solution (HBSS). […] After compound stimulation, the cells were incubated for 1 h at 37 °C and stimulated with IP1-D2 and Ab-Crypt reagents in Lysis Buffer. The cells were then incubated at room temperature for an additional hour. […] Normalized data were plotted using either the three-parameter or four-parameter EC50/IC50 fits of GraphPad Prism 8 (San Diego). […] Data represent the means ± SEM of at least three independent experiments performed in quadruplicate.

In experiment [2] the target is T2, wild-type CysLT2R (Homo sapiens, UniProt Q9NS75).
T2 construct: expressed in transfected cells; host or cells: HEK293 (ATCC CRL-1573), transient transfection with Lipofectamine 3000
T2 sequence (Q9NS75 1-346): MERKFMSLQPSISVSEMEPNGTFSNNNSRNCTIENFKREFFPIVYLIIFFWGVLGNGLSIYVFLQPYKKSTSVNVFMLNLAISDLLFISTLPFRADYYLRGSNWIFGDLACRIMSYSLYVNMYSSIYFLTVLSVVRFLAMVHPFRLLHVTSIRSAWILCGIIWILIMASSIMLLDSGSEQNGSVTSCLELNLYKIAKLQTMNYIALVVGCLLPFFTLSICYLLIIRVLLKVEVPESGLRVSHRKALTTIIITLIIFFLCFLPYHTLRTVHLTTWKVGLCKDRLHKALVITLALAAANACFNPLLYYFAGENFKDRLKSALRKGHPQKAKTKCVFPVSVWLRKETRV
The experiment is described as above. Type of experiment: cell-based. Conditions: for inhibition at 30 µM: HEK293, compound 30 µM, LTD4 at EC80, HEK293, wild-type CysLT2R, read-out: inhibition of LTD4-induced IP1 production, single-concentration screen; for Emax: HEK293, read-out: CysLT2R (LTD4) % Max Inhibition ± SEM. Here is the method: as §1

Regarding `CN(CC(=O)Nc1ccc2[nH]ncc2c1)C1=NS(=O)(=O)c2ccccc21` [BRI-12331], the values for the remaining activity at 30 µM in experiment [1] and in experiment [2] were 84.3% and 92.8%, respectively.
Regarding `COc1ccc(C2=NN(C(=O)CCC(=O)O)C(c3cccs3)C2)cc1` (stereo not drawn) [BRI-12348], the figures for the remaining activity at 30 µM in experiment [1] and in experiment [2] were 89.5% and 107%, respectively.
For `CC1CC1C(=O)NCCC(=O)Nc1cccc(Cl)c1-n1cncn1` (stereo not drawn) [BRI-12336], the remaining activity at 30 µM was determined as 77.3% in experiment [1] and 92.1% in experiment [2].
As to `Cc1ccnc(-c2ccc(NC(=O)COC(C)C)cc2)n1` [BRI-12422], the values for the remaining activity at 30 µM in experiment [1] and in experiment [2] were 79.8% and 76.5%, respectively.
`O=C(O)c1csc(S(=O)(=O)Nc2cccc(NC(=O)c3ccco3)c2)c1` [BRI-12344]: the results for the remaining activity at 30 µM in experiment [1] and in experiment [2] were 72.5% and 96.8%, respectively.
For the molecule `O=C(Nc1ccccc1C(=O)N1CCn2ncnc2C1)c1ccc(Cl)cc1` [BRI-12419], the remaining activity at 30 µM in experiment [1] amounted to 85.7%; in experiment [2] it was 48.1%.
In the case of `COc1ccccc1C(=O)NCC1CN(C(=O)c2ccc3[nH]c(=O)n(C)c3c2)C1` [BRI-12461], the values for the remaining activity at 30 µM in experiment [1] and in experiment [2] were 87.6% and 58.4%, respectively.
Take `O=C(O)CCc1cccc(NC(=O)c2ccc(-c3cccs3)[nH]c2=O)c1` [BRI-12475]: the remaining activity at 30 µM in experiment [1] was 68.3%; in experiment [2] it was 74.6%.
Take `O=C(O)Cn1ccc(NC(=O)CNC(=O)Cc2cccc(F)c2)n1` [BRI-12471]: the remaining activity at 30 µM in experiment [1] amounted to 88.2%; in experiment [2], 50.7%.
Consider `Cc1ccc(C(NS(=O)(=O)c2ccc(C(=O)NCC(=O)O)cc2)c2ccccn2)cc1` (stereo not drawn) [BRI-12437], for which the remaining activity at 30 µM worked out at 91.9% in experiment [1] and 80.5% in experiment [2].
Consider `COc1ccc(NC(=O)CN(C)C(=O)c2ccccc2-n2cnnn2)cc1` [BRI-12357], for which the remaining activity at 30 µM was 77% in experiment [1] and 65.7% in experiment [2].
Consider `O=C(O)CNS(=O)(=O)c1ccc(-c2ccc3c(c2)CCC3)s1` [BRI-12451], for which the remaining activity at 30 µM amounted to 65.3% in experiment [1] and 61.2% in experiment [2].
As to `Cc1cccc(-c2nnc(SCc3ccc(C(N)=O)cc3)n2CC(=O)O)c1` [BRI-12350], the remaining activity at 30 µM in experiment [1] came to 68.4%; in experiment [2] it was 79.8%.
Consider `NS(=O)(=O)c1cncc(-c2noc(CN(Cc3ccccc3)c3ccccc3)n2)c1` [BRI-12410], for which, in experiment [1], the affinity, expressed as Ki, was 0.59 ± 0.12 µM; the remaining activity at 30 µM was 45.2%; the inhibition at 30 µM was at least 50%; the Emax came to 64 ± 7%. Moreover, the “extent of inhibition of LTD4-mediated response at CysLT1R (in words)” value in experiment [1] (antagonist mode, 1.5 to 100 µM) was “partial antagonism”. For the same molecule, in experiment [2], the remaining activity at 30 µM stood at 46.7%, the inhibition at 30 µM is at least 50% and the Emax was determined as 18 ± 9%.
`O=C(Cn1c(=O)[nH]c(=O)c2ccccc21)N1CCc2[nH]c3ccc(F)cc3c2C1` [BRI-12341]: the values for the remaining activity at 30 µM in experiment [1] and in experiment [2] were 69.5% and 61.4%, respectively.
On to `CC1(C(=O)Nc2ccc(C(=O)NCCC(=O)O)cc2)CCOCC1` [BRI-12476], for which the values for the remaining activity at 30 µM in experiment [1] and in experiment [2] were 90.1% and 66.4%, respectively.
For `Cc1ccccc1Nc1nc2sc(C(=O)NCCc3nnc4n3CCNC4=O)cc2s1` [BRI-12435], in experiment [1], the remaining activity at 30 µM is 54.5%, the inhibition at 30 µM was at least 50% and the Emax came out at 46 ± 20%. In addition, in experiment [2], the remaining activity at 30 µM came out at 77.1%.
Regarding `O=C(Nc1ccccc1C(=O)N1CCN2C(=O)NC(=O)C2C1)c1cccs1` (stereo not drawn) [BRI-12307], the remaining activity at 30 µM is 84.6% in experiment [1] and 110% in experiment [2].
As for `O=C(O)CCC(NC(=O)c1cccc(C(F)(F)F)c1)c1ccccc1` (stereo not drawn) [BRI-12412], the remaining activity at 30 µM in experiment [1] was 91.4%; in experiment [2], 63.4%.
As for `Cn1cc(S(=O)(=O)N[C@@H]2CC[C@H](C(=O)O)C2)cc1C(N)=O` [BRI-12303], the remaining activity at 30 µM came to 77.9% in experiment [1] and 86.5% in experiment [2].
On to `COC[C@@H](C)n1c(-c2ccc3[nH]c(=O)oc3c2)csc1=Nc1ccc(C(N)=O)cc1` [BRI-12477], for which the remaining activity at 30 µM came to 74.9% in experiment [1] and 60.6% in experiment [2].
Turning to `CC(O)CN(C(=O)Nc1ccc2c(c1)CCCC2=O)C1CC1` (stereo not drawn) [BRI-12423], the remaining activity at 30 µM is 89.7% in experiment [1] and 68.2% in experiment [2].
Consider `Cc1ccc2c(CC(=O)N3CCN(C(=O)c4ccc(C(N)=O)o4)CC3)c[nH]c2c1` [BRI-12462], for which the remaining activity at 30 µM is 77.1% in experiment [1] and 78.1% in experiment [2].
For the molecule `Cc1cc(O)c(C(=O)O)cc1S(=O)(=O)Nc1ccc(N2CCCC2)c(F)c1` [BRI-12334], in experiment [1], the remaining activity at 30 µM came to 47.3%, the inhibition at 30 µM is at least 50% and the Emax turned out to be 46 ± 15%. In addition, in experiment [2], the remaining activity at 30 µM came to 57.2%, the inhibition at 30 µM was at least 50% and the Emax worked out at 21 ± 8%.
For the molecule `NC(=O)NC(=O)COC(=O)c1ccccc1Nc1cccc(C(F)(F)F)c1` [BRI-12349], the results for the remaining activity at 30 µM in experiment [1] and in experiment [2] were 80% and 70.5%, respectively.
In the case of `O=C(c1ccc2nnnn2c1)N1CC=C(c2c[nH]c3ccccc23)CC1` [BRI-12332], the remaining activity at 30 µM in experiment [1] is 96.7%; in experiment [2], 91.2%.
Taken in the same sequence, the figures for `Cc1nc2c(C(N)=O)cnn2c(C)c1CCC(=O)N(C)c1ccc2cc[nH]c2c1` [BRI-12448] were 95.9% and 88.5%.
Consider `O=C(NC1CCCC1)c1ccc(NC(=O)C2C3C=CC(C3)C2C(=O)O)cc1` (stereo not drawn) [BRI-12321], for which the remaining activity at 30 µM was determined as 87.8% in experiment [1] and 95.1% in experiment [2].
As to `NC(=O)c1ccc(CNC(=O)c2ccc(NC(=O)c3ccc(Cl)c(Cl)c3)cc2O)o1` [BRI-12418], the remaining activity at 30 µM in experiment [1] turned out to be 65.4%; in experiment [2], 67.9%.
In the same order, the values of `O=C(O)CC(NC(=O)c1ccc(Cl)c(N2CCNC2=O)c1)c1ccccc1` (stereo not drawn) [BRI-12311] are 77.5% and 91%.
Turning to `CC1=C(C(=O)Nc2ccccc2)C(c2ccncc2)n2nc(CCCO)nc2N1` (stereo not drawn) [BRI-12325], the remaining activity at 30 µM in experiment [1] stood at 76.1%; in experiment [2], 79.3%.
As for `CCc1ccc(CN(C)S(=O)(=O)c2[nH]ncc2C(=O)O)cc1` [BRI-12470], the remaining activity at 30 µM was determined as 81% in experiment [1] and 58.6% in experiment [2].
With `NC(=O)c1ncn(C2CCCN(c3nc(-c4ccccc4)cs3)C2)n1` (stereo not drawn) [BRI-12455], the remaining activity at 30 µM is 84.2% in experiment [1] and 71.1% in experiment [2].
`NS(=O)(=O)c1cc(C(=O)NCCc2ccc(OCC(=O)O)cc2)cs1` [BRI-12426]: the remaining activity at 30 µM in experiment [1] was determined as 72.6%. Moreover, in experiment [2], the remaining activity at 30 µM turned out to be 41.8%, the inhibition at 30 µM is at least 50% and the Emax came to 5 ± 9%.
Turning to `CC(C)c1cc(C(=O)Nc2ccc(C(=O)NCC(=O)O)cc2)nn1C` [BRI-12406], the remaining activity at 30 µM was determined as 79.6% in experiment [1] and 68.4% in experiment [2].
As to `O=C(O)CC(NS(=O)(=O)Cc1cccc2cccnc12)c1cnn(-c2ccccc2)c1` (stereo not drawn) [BRI-12460], the remaining activity at 30 µM was 83.9% in experiment [1] and 73.5% in experiment [2].
Turning to `CC(Sc1n[nH]c(=O)n1C1CC1)C(=O)c1c[nH]c2ccccc12` (stereo not drawn) [BRI-12342], the remaining activity at 30 µM in experiment [1] came out at 71.7%; in experiment [2] it was 81.2%.
With `O=C(CC1SC(c2cc3ccccc3oc2=O)=NC1=O)Nc1ccc(F)cc1` (stereo not drawn) [BRI-12345], the results for the remaining activity at 30 µM in experiment [1] and in experiment [2] were 75.3% and 101%, respectively.
For the molecule `C[S+]([O-])Cc1cccc(NC(=O)CC2(C(=O)O)Cc3ccccc3C2)c1` (stereo not drawn) [BRI-12326], the remaining activity at 30 µM in experiment [1] worked out at 79.3%; in experiment [2], 71%.
As for `O=C(O)c1cc(S(=O)(=O)NCCc2ccc(Cl)cc2)ccc1O` [BRI-12352], the remaining activity at 30 µM in experiment [1] worked out at 73.4%; in experiment [2], 87.8%.
Taken in the same sequence, the figures for `O=C(O)CNC(=O)c1ccc(NC(=O)C2Cc3cc(F)ccc3O2)cc1` (stereo not drawn) [BRI-12329] were 88.8% and 87.8%.
